In patent publication US6680025B2, “Device and method for photoactivation” (Cerus Corporation, priority 1989, dated 2004):
Marks after values point to notes of the source that are not given here.

What was measured:
E. coli DNA Polymerase = assay: Primer extension on monoadducted 71-mer, E. coli DNA polymerase; format: biochemical; details: 37° C., 0, 5 or 15 minutes
Taq polymerase = Taq polymerase (Thermus aquaticus, UniProt P19821); assay: Taq primer extension of 71-mer after random addition of compound or photoproduct; format: biochemical; details: for extension of 71-mer irradiated with compound: AMIP 200 μg/ml, AMDMIP 200 μg/ml, irradiated 15 minutes CE-I at 25° C.
Taq polymerase, sequence (P19821 whole entry): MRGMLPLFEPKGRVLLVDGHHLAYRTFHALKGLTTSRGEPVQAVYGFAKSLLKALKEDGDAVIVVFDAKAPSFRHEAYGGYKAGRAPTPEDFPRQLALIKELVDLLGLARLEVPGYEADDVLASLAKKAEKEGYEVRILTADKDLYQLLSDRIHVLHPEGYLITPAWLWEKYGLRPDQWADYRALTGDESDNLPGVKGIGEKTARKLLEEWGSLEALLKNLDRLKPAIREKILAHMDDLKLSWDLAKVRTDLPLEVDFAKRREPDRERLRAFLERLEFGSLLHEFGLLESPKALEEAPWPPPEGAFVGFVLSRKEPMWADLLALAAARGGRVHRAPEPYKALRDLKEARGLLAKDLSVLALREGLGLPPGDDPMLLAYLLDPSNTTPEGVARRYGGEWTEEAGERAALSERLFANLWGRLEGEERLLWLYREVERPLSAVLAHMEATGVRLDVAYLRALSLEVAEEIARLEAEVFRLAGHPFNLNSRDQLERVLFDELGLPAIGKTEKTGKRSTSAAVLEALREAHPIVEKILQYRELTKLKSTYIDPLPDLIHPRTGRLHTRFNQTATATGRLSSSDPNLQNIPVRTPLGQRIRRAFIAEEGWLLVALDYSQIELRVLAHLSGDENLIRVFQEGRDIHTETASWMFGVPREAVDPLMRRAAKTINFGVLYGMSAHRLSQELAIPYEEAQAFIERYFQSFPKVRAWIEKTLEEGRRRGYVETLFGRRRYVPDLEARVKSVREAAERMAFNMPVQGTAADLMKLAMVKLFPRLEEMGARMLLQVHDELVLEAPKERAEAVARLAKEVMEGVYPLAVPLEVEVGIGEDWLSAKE
Text: In this experiment, the ability of AMIP, AMDMIP and MIF to block replication of 71-mer is investigated by randomly adding each compound to the 71-mer. Of course, addition may only be random in the sense that one or more adducts may be formed with any one strand of nucleic acid. The actual placement of the isopsoralen may be governed by preferential binding at particular sites (e.g. A:T). In addition to blockage by random adducts, photoproducts of the various isopsoralens may be providing an inhibitory effect. No attempt to separate the effects of photoproduct from the effects of covalent adducts on the 71-mer template was made in this series of experiments.
In these experiments, the 71-mer template (10^−9 M) was primed with ^32P-SK-39 (10^−8) and extended with Taq polymerase in a total volume of […]. The dNTP concentration was 200 μM. In the control samples, the 71-mer, the primer, and the dNTPs were mixed in Taq buffer in a volume of 18 p1. These samples were initially denatured at 95° C. for 5 minutes, followed by equilibration at 55° C. for 3 minutes. Taq enzyme was then added (0.5 units) and the extension reaction was carried out for 5 minutes at 55° C. The reaction was stopped by making the solution 10 mM in EDTA. In another set of samples, the 71-mer in 10 μl was mixed with either AMIP (200 μg/ml), AMDMIP (200 μg/ml), or MIP (60 μg/ml). Half of these samples were irradiated for 15 minutes on the CE-I device at 25° C. The other half was kept in the dark as controls. These samples were then mixed with the primer and dNTPs as before, and were subjected to the same thermal profile and extension reactions as the samples that were described earlier. The results were examined by PAGE. The extended product bands were identified by autoradiography, excised and counted (data not shown). […]
71-mer was made up in Taq buffer. Samples were prepared as follows: 1) dark control samples were not subjected to activating light; 2) 10 μl samples of the 71-mer (2×10^−9 M) were irradiated in the presence of 200 μg/ml AMDMIP, and 3) 10 μl samples of a 200 μg/ml solution of AMDMIP were irradiated in the absence of the 71-mer target. All irradiations were carried out with the CE-I device at 25° C. After preparing the above samples, unirradiated AMDMIP was added to one set of the dark control samples. Another set of dark controls received irradiated AMDMIP. ^32P-SK-39 primer and dNTPs were then added to all samples and the volume was adjusted to 18 μl. These samples were denatured at 95° C. for 5 minutes, followed by equilibration at 55° C. for 3 minutes. Taq polymerase was then added and the extension reaction was carried out for 5 minutes. The reaction was stopped by bringing the samples to 10 mM in EDTA. The final concentrations of all reagents during the extension reactions were: […]

[1] = Solubility of photoreactive compounds in 1×TE; format: physicochemical; details: excess compound heated 50-70° C., stirred at room temperature, filtered; optical density
Procedure: The solubilities of AMIP, AMDMIP, DMIP, MIP and isopsoralen (IP) were determined experimentally according to the scheme set forth in FIG. 5. To perform the solubility measurement, it was first necessary to establish known optical densities for a 1 μg/ml solution of each compound. These were determined by preparing either ethanolic or aqueous stocks of each compound at known concentrations in 1×TE, then measuring the optical density of each solution. From this information, the absorption of a 1 μg/ml solution was computed. Alternatively, the extinction coefficient may be thus determined and used in the same fashion. In this manner, the following absorption data was collected:
Following this step, undissolved compound was removed by filtration using a 0.2 u nylon-66 syringe filter (Arco LC13; Gelman). The concentration of the remaining soluble compound was then determined by measuring the optical density of the filtrate and computing the solubility from the known optical density of a 1 μg/ml solution of that compound. The solubility of the compounds was thus determined to be as follows: […]

Reverse Transcriptase = assay: Primer extension on monoadducted 71-mer, reverse transcriptase; format: biochemical; details: 37° C., 0, 5 or 15 minutes

| SMILES | block of primer extension by 71-mer monoadduct (E. coli DNA Polymerase) | extension of 71-mer irradiated with compound (Taq polymerase; MIP 60 μg/ml) | Solubility in 1 × TE [1] | block of primer extension by 71-mer monoadduct (Reverse Transcriptase) | extension of 71-mer irradiated in the presence of AMDMIP (Taq polymerase; 200 μg/ml during irradiation, CE-I at 25° C.) | extension of 71-mer, dark control with unirradiated AMDMIP (Taq polymerase; AMDMIP 100 μg/ml final) | amount of full length product versus control samples (Taq polymerase; MIP 60 μg/ml, irradiated 15 minutes CE-I) |
| --- | --- | --- | --- | --- | --- | --- | --- |
| NCc1cc2occc2c2oc(=O)ccc12 [AMIP, 5-Aminomethylisopsoralen] | not complete stops | not extended at all | 21,000 ug/ml | complete stops |  |  |  |
| Cc1oc2ccc3c(C)cc(=O)oc3c2c1CN [AMDMIP, 4′-Aminomethyl-4,5′-dimethylisopsoralen] | complete stop | not extended at all | >22,700* ug/ml | complete stop | no extension products at all | full length extension product |  |
| Cc1cc2occc2c2oc(=O)ccc12 [MIP, 5-Methylisopsoralen] | not complete stops | some full length extension product and a minor truncated product | nd (nd = not detectable (solubility was less than 1 μg/ml)) | complete stops |  |  | half of that observed with the control samples |
